This passage reports EC50 and Lymphocyte counts results from US8133910B2, “Thiophene derivatives as S1P1/EDGE1 receptor agonists” (Actelion Pharmaceuticals Ltd., priority 2006, dated 2012).

Experiment [1] has as its target recombinant human S1P1 receptor (Homo sapiens, UniProt P21453). In words: GTPγS assay to determine EC50 values. The experiment is classed as biochemical. Conditions: 35S-GTPγS binding, membrane preparations of CHO cells expressing recombinant human S1P1 receptor, pH 7.4. Here is the method:
GTPγS binding assays are performed in 96 well microtiter plates (Nunc, 442587) in a final volume of 200 μl, using membrane preparations of CHO cells expressing recombinant human S1P1 receptor. Assay conditions are 20 mM Hepes (Fluka, 54461), 100 mM NaCl (Fluka, 71378), 5 mM MgCl2 (Fluka, 63064), 0.1% BSA (Calbiochem, 126609), 1 μM GDP (Sigma, G-7127), 2.5% DMSO (Fluka, 41644), 50 pM ^35S-GTPγS (Amersham Biosciences, SJ1320). The pH is 7.4. Test compounds are dissolved and diluted in 100% DMSO and pre-incubated at room temperature for 30 min in 150 μl of the above assay buffer, in the absence of ^35S-GTPγS. After addition of 50 μl of ^35S-GTPγS, the assay is incubated for 1 h at rt. The assay is terminated by transfer of the reaction mixture to a Multiscreen plate (Millipore, MAHFC1H60) using a cell harvester from Packard Biosciences, and the plates are washed with ice-cold 10 mM Na2HPO4/NaH2PO4 (70%/30%), dried, sealed at the bottom and, after addition of 25 μl MicroScint20 (Packard Biosciences, order #6013621), sealed on the top. Membrane-bound ^35S-GTPγS is measured with a TopCount from Packard Biosciences.
EC50 is the concentration of agonist inducing 50% of the maximal specific ^35S-GTPγS binding. Specific binding is determined by subtracting non-specific binding from maximal binding. Maximal binding is the amount of cpm bound to the
Multiscreen plate in the presence of 10 μM of S1P. Non-specific binding is the amount of binding in the absence of an agonist in the assay.

The subject of a further experiment is circulating lymphocytes. In words: Assessment of in vivo efficacy: circulating lymphocytes after oral administration. Conditions: 6 h after oral administration of 10 mg/kg to normotensive male Wistar rats, as compared to vehicle group; mean±SEM. Here is the method:
The efficacy of the compounds of Formula (I) is assessed by measuring the circulating lymphocytes after oral administration of 3 to 30 mg/kg of a compound of Formula (I) to normotensive male Wistar rats. The animals are housed in climate-controlled conditions with a 12 h-light/dark cycle, and have free access to normal rat chow and drinking water. Blood is collected before and 3, 6 and 24 h after drug administration. Full blood is subjected to hematology using Advia Hematology system (Bayer Diagnostics, Zürich, Switzerland).
All data are presented as mean±SEM. Statistical analyses are performed by analysis of variance (ANOVA) using Statistica (StatSoft) and the Student-Newman-Keuls procedure for multiple comparisons. The null hypothesis is rejected when p<0.05.

Structures are written as SMILES.

Chain of recombinant human S1P1 receptor (P21453 whole entry): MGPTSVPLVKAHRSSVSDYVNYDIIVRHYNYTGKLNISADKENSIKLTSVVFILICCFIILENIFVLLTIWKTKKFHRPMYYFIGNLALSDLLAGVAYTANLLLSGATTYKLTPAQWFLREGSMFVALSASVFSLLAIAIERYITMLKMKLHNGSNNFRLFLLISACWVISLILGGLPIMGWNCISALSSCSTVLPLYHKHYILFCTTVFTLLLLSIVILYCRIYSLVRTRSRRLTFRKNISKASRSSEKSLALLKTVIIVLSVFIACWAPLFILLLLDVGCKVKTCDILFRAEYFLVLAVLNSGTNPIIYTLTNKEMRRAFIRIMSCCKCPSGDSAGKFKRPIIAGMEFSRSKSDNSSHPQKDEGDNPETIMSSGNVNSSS

Turning to `CCCc1ccc(-c2nc(-c3cc(C)c(OC[C@@H](O)CNC(=O)CO)c(CC)c3)no2)s1` [Example 28, (2S)—N-(3-{2-Ethyl-6-methyl-4-[5-(5-propyl-thiophen-2-yl)-[1,2,4]oxadiazol-3-yl]-phenoxy}-2-hydroxy-propyl)-2-hydroxy-acetamide], in experiment [1], the EC50 stood at 2.4 nM.
In the case of `CCc1cc(-c2nnc(-c3cc(C)c(CC(C)C)s3)o2)cc(C)c1OC[C@@H](O)CO` [Example 40, (2S)-3-{2-Ethyl-4-[5-(5-isobutyl-4-methyl-thiophen-2-yl)-[1,3,4]oxadiazol-2-yl]-6-methyl-phenoxy}-propane-1,2-diol], in the experiment with circulating lymphocytes, the Lymphocyte counts is −58 ± 3%.
For the compound `CCc1cc(-c2nnc(-c3cc(C)c(CC(C)C)s3)o2)cc(C)c1OC[C@@H](O)CNC(=O)CO` [Example 42, N-((2S)-3-{2-Ethyl-4-[5-(5-isobutyl-4-methyl-thiophen-2-yl)-[1,3,4]oxadiazol-2-yl]-6-methyl-phenoxy}-2-hydroxy-propyl)-2-hydroxy-acetamide], in experiment [1], the EC50 amounted to 0.6 nM.
On to `Cc1cc(-c2noc(-c3ccc(CC(C)C)s3)n2)cc(C)c1OCC(O)CNC(=O)CO` (stereo not drawn) [Example 16], for which the EC50 in experiment [1] was determined as 2.6 nM.
Regarding `CCCc1ccc(-c2nc(-c3cc(C)c(OC[C@H](O)CNC(=O)CO)c(C)c3)no2)s1` [Example 17, (2R)—N-(3-{2,6-Dimethyl-4-[5-(5-propyl-thiophen-2-yl)-[1,2,4]oxadiazol-3-yl]-phenoxy}-2-hydroxy-propyl)-2-hydroxy-acetamide], in experiment [1], the EC50 was 0.6 nM. Also, in the experiment on circulating lymphocytes, the Lymphocyte counts is listed as −59. ± 4%.
Regarding `Cc1cc(-c2nnc(-c3ccc(CC(C)C)s3)o2)cc(C)c1OCC(O)CNC(=O)CO` (stereo not drawn) [Example 22, 2-hydroxy-N-(2-hydroxy-3-{4-[5-(5-isobutyl-thiophen-2-yl)-[1,3,4]oxadiazol-2-yl]-2,6-dimethyl-phenoxy}-propyl)-acetamide], the concentration giving a half-maximal response (EC50) in experiment [1] worked out at 2.8 nM.
Same read-out and setting: the figure for `Cc1cc(-c2nnc(-c3ccc(CC(C)C)s3)o2)cc(C)c1OC[C@@H](O)CNC(=O)CO` [Example 31, 2-hydroxy-N-((2S)-2-hydroxy-3-{4-[5-(5-isobutyl-thiophen-2-yl)-[1,3,4]oxadiazol-2-yl]-2,6-dimethyl-phenoxy}-propyl)-acetamide] is 3.3 nM.
For `CCc1cc(-c2nnc(-c3ccc(CC(C)C)s3)o2)cc(C)c1OC[C@@H](O)CNC(=O)CO` [Example 37, N-((2S)-3-{2-Ethyl-6-methyl-4-[5-(5-isobutyl-thiophen-2-yl)-[1,3,4]oxadiazol-2-yl]-phenoxy}-2-hydroxy-propyl)-2-hydroxy-acetamide], the Lymphocyte counts in the experiment on circulating lymphocytes was −67 ± 3%.
